This note sets out measurements from publication PMC9329436, “Optimization of the 4-anilinoquin(az)oline scaffold as epidermal growth factor receptor (EGFR) inhibitors for chordoma utilizing a toxicology profiling assay platform” (Scientific Reports, 2022).

Common to all, as to type: biochemical
The target of test [1] is 320 wild-type protein kinases (Homo sapiens, UniProt Q04912). The settings on record: kinase RON, singlicate. From the text:
(§1) Table S4. Profiling of two compounds at two concentrations against 320 wild-type protein kinases; singlicate measurement; Residual activities (% of control).

Test [2] concerns the target 320 wild-type protein kinases (Homo sapiens, UniProt Q16512). The settings on record: singlicate.
From the text: as §1

The target in test [3] is T1, 320 wild-type protein kinases (Homo sapiens, UniProt Q12866).
T1 sequence (Q12866 21-999): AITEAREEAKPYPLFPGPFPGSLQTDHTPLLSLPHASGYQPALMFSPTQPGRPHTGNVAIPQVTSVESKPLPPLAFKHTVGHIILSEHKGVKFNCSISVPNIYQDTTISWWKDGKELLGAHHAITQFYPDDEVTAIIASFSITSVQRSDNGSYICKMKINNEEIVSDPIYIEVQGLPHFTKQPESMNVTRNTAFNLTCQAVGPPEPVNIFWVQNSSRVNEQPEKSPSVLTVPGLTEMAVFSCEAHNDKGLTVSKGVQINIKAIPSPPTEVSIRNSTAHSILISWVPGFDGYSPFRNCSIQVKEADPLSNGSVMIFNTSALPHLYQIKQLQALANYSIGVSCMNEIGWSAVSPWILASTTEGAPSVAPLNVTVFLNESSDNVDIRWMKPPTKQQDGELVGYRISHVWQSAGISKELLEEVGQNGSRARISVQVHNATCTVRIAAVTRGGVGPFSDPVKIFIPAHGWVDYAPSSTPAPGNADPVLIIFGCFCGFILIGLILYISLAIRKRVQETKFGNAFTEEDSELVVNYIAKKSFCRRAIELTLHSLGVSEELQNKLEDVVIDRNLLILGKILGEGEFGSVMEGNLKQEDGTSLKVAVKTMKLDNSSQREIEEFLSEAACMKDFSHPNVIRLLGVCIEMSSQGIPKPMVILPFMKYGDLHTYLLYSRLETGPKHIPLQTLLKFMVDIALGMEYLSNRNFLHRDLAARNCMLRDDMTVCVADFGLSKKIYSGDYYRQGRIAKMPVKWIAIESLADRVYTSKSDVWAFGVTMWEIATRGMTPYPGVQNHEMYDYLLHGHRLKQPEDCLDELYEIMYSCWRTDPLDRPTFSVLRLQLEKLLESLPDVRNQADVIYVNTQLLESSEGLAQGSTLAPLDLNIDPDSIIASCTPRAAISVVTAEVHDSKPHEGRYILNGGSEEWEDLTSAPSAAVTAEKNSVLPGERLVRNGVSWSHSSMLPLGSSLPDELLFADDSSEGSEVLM
The settings on record: MERTK, singlicate.
From the text: as §1

Test [4] addresses 320 wild-type protein kinases (Homo sapiens, UniProt Q9HC98). As to conditions: singlicate.
From the text: as §1

In test [5] the target is T2, 320 wild-type protein kinases (Homo sapiens, UniProt Q9Y2U5).
T2 sequence (Q9Y2U5 1-619): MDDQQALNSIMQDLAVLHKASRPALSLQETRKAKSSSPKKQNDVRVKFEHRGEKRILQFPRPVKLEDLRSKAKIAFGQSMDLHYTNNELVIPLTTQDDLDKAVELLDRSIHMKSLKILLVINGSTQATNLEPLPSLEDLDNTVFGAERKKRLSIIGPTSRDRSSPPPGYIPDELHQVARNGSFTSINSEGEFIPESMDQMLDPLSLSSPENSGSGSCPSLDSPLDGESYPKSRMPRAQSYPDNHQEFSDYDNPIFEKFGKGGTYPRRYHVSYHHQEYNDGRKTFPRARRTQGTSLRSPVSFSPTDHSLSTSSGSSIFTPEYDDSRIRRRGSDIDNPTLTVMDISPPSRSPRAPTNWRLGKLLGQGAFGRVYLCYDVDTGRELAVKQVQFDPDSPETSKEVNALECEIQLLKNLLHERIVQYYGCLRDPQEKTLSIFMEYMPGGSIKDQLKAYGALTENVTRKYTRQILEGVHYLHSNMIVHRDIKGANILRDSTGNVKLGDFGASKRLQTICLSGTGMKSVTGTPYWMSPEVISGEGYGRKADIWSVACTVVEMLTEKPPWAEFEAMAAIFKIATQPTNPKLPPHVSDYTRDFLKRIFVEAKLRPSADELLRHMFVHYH
The settings on record: singlicate.
From the text: as §1

Test [6] has as its target T3, 320 wild-type protein kinases (Homo sapiens, UniProt Q09013).
T3 sequence (Q09013 1-629): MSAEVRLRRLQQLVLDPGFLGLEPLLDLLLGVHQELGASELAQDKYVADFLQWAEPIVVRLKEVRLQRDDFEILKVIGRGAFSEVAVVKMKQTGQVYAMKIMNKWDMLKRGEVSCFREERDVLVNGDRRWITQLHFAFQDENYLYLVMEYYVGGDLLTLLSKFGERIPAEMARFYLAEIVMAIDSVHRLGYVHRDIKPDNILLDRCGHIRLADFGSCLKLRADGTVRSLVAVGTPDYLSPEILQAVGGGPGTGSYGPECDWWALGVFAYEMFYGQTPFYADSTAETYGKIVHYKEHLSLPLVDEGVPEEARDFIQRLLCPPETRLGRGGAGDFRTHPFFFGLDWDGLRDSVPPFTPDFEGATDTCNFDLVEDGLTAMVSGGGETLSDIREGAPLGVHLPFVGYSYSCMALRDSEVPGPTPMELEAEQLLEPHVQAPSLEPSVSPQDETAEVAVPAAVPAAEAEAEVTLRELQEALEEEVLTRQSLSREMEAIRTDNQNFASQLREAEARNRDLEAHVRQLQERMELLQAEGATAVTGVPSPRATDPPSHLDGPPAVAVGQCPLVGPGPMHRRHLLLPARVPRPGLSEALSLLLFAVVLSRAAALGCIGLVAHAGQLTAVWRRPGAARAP
The settings on record: DMPK, singlicate.
From the text: as §1

In test [7] the target is 320 wild-type protein kinases (Homo sapiens, UniProt P09769). The settings on record: FGR, singlicate.
Sequence of 320 wild-type protein kinases (Homo sapiens, UniProt P09769) (P09769 whole entry): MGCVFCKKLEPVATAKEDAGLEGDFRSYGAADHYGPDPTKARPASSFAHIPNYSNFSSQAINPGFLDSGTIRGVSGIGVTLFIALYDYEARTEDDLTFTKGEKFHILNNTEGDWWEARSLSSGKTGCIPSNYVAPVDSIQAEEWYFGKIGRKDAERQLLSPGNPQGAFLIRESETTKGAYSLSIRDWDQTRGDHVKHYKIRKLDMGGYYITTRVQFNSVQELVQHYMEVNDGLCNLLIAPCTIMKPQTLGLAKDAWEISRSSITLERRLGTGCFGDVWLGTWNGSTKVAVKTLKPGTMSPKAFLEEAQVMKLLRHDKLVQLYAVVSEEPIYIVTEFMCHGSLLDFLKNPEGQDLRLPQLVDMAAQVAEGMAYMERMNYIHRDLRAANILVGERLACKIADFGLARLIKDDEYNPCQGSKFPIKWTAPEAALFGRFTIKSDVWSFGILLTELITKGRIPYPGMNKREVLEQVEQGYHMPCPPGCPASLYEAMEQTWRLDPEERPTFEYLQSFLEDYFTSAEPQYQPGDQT
From the text: as §1

Read-outs that look alike come from different tables or passages of the source.

Sequence of 320 wild-type protein kinases (Homo sapiens, UniProt Q04912) (Q04912 25-1400): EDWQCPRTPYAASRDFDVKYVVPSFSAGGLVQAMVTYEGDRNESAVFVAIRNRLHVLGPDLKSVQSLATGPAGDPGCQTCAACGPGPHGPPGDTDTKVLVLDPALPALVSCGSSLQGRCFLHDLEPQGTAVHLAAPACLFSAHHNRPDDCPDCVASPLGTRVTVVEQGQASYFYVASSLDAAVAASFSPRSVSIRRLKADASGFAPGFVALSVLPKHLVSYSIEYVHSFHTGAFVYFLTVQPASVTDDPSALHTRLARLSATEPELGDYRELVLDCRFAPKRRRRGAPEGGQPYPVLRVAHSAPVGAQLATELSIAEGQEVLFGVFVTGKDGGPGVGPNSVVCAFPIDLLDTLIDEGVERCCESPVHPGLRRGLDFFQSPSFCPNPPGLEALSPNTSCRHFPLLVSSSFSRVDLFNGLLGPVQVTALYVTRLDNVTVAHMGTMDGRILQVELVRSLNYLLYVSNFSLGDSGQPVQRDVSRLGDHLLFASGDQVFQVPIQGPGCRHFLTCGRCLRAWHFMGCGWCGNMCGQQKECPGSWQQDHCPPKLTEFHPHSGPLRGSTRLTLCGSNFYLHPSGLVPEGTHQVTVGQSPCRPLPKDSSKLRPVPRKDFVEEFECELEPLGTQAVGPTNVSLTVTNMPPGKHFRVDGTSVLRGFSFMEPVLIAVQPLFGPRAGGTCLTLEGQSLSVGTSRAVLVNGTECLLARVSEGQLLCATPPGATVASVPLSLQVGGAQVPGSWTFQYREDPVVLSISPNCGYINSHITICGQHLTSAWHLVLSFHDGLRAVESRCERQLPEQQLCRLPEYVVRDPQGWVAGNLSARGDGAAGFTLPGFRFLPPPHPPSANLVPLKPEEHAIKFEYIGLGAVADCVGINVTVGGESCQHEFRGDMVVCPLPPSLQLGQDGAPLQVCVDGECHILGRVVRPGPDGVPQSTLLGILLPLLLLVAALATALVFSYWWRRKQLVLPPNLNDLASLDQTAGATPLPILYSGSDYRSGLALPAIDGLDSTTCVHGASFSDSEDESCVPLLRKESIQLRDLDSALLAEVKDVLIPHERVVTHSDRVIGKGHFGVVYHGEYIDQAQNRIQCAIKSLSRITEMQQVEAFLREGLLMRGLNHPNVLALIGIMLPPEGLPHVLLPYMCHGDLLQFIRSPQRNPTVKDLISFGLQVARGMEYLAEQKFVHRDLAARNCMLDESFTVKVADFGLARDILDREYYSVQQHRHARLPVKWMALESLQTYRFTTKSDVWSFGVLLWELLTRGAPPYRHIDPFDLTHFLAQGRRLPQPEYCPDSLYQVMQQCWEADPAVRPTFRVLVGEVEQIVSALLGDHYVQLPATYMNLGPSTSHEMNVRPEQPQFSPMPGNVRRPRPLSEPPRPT
Sequence of 320 wild-type protein kinases (Homo sapiens, UniProt Q9HC98) (Q9HC98 whole entry): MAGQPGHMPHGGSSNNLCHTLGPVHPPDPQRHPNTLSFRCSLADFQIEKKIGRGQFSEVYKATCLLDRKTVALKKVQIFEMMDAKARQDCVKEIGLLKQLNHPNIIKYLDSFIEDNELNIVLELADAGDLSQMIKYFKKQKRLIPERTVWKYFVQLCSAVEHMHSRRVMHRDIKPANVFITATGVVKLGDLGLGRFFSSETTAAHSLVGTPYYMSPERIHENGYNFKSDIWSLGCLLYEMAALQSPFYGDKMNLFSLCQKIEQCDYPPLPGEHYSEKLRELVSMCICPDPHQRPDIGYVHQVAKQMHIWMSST
Sequence of 320 wild-type protein kinases (Homo sapiens, UniProt Q16512) (Q16512 whole entry): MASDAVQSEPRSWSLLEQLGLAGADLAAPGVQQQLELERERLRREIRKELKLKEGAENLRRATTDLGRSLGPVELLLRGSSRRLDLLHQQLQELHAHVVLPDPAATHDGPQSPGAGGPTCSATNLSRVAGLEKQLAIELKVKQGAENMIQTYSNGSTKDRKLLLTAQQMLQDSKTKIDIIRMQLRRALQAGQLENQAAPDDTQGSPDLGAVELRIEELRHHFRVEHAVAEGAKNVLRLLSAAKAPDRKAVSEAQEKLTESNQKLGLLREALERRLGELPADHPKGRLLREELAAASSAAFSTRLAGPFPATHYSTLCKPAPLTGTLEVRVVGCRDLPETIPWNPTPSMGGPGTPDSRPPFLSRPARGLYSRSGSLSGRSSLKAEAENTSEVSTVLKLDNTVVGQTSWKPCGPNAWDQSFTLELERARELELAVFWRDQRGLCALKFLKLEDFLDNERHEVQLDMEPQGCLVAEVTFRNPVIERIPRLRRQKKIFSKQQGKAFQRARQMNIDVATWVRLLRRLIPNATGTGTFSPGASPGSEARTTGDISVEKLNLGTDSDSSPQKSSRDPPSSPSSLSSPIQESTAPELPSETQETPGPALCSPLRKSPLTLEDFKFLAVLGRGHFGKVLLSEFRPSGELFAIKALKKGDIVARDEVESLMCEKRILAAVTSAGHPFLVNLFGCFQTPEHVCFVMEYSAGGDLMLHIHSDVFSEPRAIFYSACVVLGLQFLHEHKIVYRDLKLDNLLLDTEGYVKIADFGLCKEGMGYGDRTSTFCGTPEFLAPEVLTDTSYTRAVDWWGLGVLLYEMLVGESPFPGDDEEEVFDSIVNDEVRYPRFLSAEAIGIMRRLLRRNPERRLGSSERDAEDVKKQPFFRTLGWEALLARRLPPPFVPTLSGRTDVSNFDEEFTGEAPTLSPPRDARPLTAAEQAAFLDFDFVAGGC

In the case of `C#Cc1cc(Nc2ncnc3cc(OC)c(OC)cc23)ccc1Cl` [Compound 45], the “Residual activity, RON” value in test [1] (assay conc. 1.0E-06 M) is given as 82 % of control; in test [1] (assay conc. 1.0E-07 M) it was 90 % of control. Moreover, the Residual activity is 91 % of control in test [2] (PRK1, 1.0E-06 M); 91 % of control in test [2] (PRK1, 1.0E-07 M); 83 % of control in test [3] (1.0E-06 M); 97 % of control in test [3] (1.0E-07 M); 92 % of control in test [4] (NEK6, 1.0E-06 M); 90 % of control in test [4] (NEK6, 1.0E-07 M). Besides, the Residual activity in test [5] (MEKK2, 1.0E-06 M) is reported as 107 % of control; in test [5] (MEKK2, 1.0E-07 M), 120 % of control; in test [6] (1.0E-06 M), 104 % of control; in test [6] (1.0E-07 M), 103 % of control; in test [7] (1.0E-06 M) it was 94 % of control; in test [7] (1.0E-07 M) it was 125 % of control.

For `C#Cc1cc(Nc2ncnc3cc(I)ccc23)ccc1Cl` [Compound 41], the “Residual activity, RON” value is 63 % of control in test [1] (assay conc. 1.0E-06 M) and 77 % of control in test [1] (assay conc. 1.0E-07 M). Further, the Residual activity in test [2] (PRK1, 1.0E-06 M) is 96 % of control; in test [2] (PRK1, 1.0E-07 M), 96 % of control; in test [3] (1.0E-06 M), 102 % of control; in test [3] (1.0E-07 M) it was 103 % of control; in test [4] (NEK6, 1.0E-06 M), 92 % of control; in test [4] (NEK6, 1.0E-07 M), 84 % of control. Moreover, the Residual activity is recorded as 93 % of control in test [5] (MEKK2, 1.0E-06 M); 112 % of control in test [5] (MEKK2, 1.0E-07 M); 106 % of control in test [6] (1.0E-06 M); 121 % of control in test [6] (1.0E-07 M); 114 % of control in test [7] (1.0E-06 M); 129 % of control in test [7] (1.0E-07 M).
